For 25 compounds, T/C results are on record in PubChem BioAssay AID330 (DTP/NCI, 2004).

This test has as its system P388 leukemia ip, CD2F1 mice, survival T/C. Nature of the test: NCI In Vivo Anticancer Drug Screen. Data for tumor model P388 Leukemia (intraperitoneal) in CD2F1 (CDF1) mice. The following applies: endpoint: median survival time, higher = longer survival. A digest of the protocol:
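Mice carrying the transplanted tumor received test compound or vehicle. Survival was recorded in each group, and the value is the treated-group measurement divided by that of the vehicle-treated control group.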

Where [1] appears, read: dose: 100.0 mg/kg/injection, schedule: Q01DX009 (ip), vehicle: saline.
[2] abbreviates: dose: 200.0 mg/kg/injection, schedule: Q01DX009 (ip), vehicle: saline.
The mark [3] stands for this setting: dose: 60.0 mg/kg/injection, schedule: Q01DX005 (ip), vehicle: Klucel (hydroxypropylcellulose) (HPC).
Where [4] appears, read: dose: 120.0 mg/kg/injection, schedule: Q01DX005 (ip), vehicle: Klucel (hydroxypropylcellulose) (HPC).
Where [5] appears, read: dose: 50.0 mg/kg/injection, schedule: Q01DX005 (ip), vehicle: saline with Tween-80.
Where [6] appears, read: dose: 100.0 mg/kg/injection, schedule: Q01DX005 (ip), vehicle: saline with Tween-80.
Setting [7] is: dose: 200.0 mg/kg/injection, schedule: Q01DX005 (ip), vehicle: saline with Tween-80.
Setting [8] is: dose: 50.0 mg/kg/injection, schedule: Q01DX005 (ip), vehicle: Klucel (hydroxypropylcellulose) (HPC).
The mark [9] stands for this setting: dose: 100.0 mg/kg/injection, schedule: Q01DX005 (ip), vehicle: Klucel (hydroxypropylcellulose) (HPC).
The mark [10] stands for this setting: dose: 200.0 mg/kg/injection, schedule: Q01DX005 (ip), vehicle: Klucel (hydroxypropylcellulose) (HPC).
[11] abbreviates: dose: 100.0 mg/kg/injection, schedule: Q04DX003 (ip), vehicle: saline.
Setting [12] is: dose: 50.0 mg/kg/injection, schedule: Q01DX005 (ip), vehicle: saline.
[13] abbreviates: dose: 100.0 mg/kg/injection, schedule: Q01DX005 (ip), vehicle: saline.
The mark [14] stands for this setting: dose: 100.0 mg/kg/injection, schedule: Q01DX001 (ip), vehicle: saline with Tween-80.
Where [15] appears, read: dose: 200.0 mg/kg/injection, schedule: Q01DX001 (ip), vehicle: saline with Tween-80.

Where “and” joins values, the source holds several entries; their conditions need not be identical. Identical values can stand only once. Inconclusive results and toxic doses are left out.

For `O=C1N(CC2CO2)CCN1CC1CO1` (stereo unspecified), the T/C is, setting by setting: (dose: 25.0 mg/kg/injection, schedule: Q01DX009 (ip), vehicle: saline) 120 % of control; under setting [1], 155 % of control and 159 % of control; under setting [2], 206 % of control and 215 % of control.
For the compound `CC1(C)SC(C)(c2ccco2)N(c2nccs2)C1=O` (stereo unspecified), the T/C by setting is: under setting [3], 104 % of control; under setting [4], 104 % of control.
With `CCOC(=O)NC(=O)c1c(C)oc(C)cc1=O`, the T/C reads like this: (dose: 50.0 mg/kg/injection, schedule: Q01DX009 (ip), vehicle: Klucel (hydroxypropylcellulose) (HPC)) 118 % of control; (dose: 100.0 mg/kg/injection, schedule: Q01DX009 (ip), vehicle: Klucel (hydroxypropylcellulose) (HPC)) 115 % of control; (dose: 200.0 mg/kg/injection, schedule: Q01DX009 (ip), vehicle: Klucel (hydroxypropylcellulose) (HPC)) 107 % of control.
`O=[N+]([O-])c1cccc(/C=C/C=C/c2cccc(S(=O)(=O)F)c2)c1`: the T/C was 90 % of control (dose: 100.0 mg/kg/injection, schedule: Q01DX009 (ip), vehicle: saline with Tween-80); 86 % of control (dose: 200.0 mg/kg/injection, schedule: Q01DX009 (ip), vehicle: saline with Tween-80); 86 % of control (dose: 400.0 mg/kg/injection, schedule: Q01DX009 (ip), vehicle: saline with Tween-80).
As to `CC1SCC(=O)N1c1nncs1` (stereo unspecified), the T/C by setting is: (dose: 30.0 mg/kg/injection, schedule: Q01DX005 (ip), vehicle: Klucel (hydroxypropylcellulose) (HPC)) 101 % of control and 104 % of control; under setting [3], 102 % of control and 106 % of control; under setting [4], 106 % of control and 123 % of control; (dose: 240.0 mg/kg/injection, schedule: Q01DX005 (ip), vehicle: Klucel (hydroxypropylcellulose) (HPC)) 123 % of control; (dose: 480.0 mg/kg/injection, schedule: Q01DX005 (ip), vehicle: Klucel (hydroxypropylcellulose) (HPC)) 162 % of control.
`C[C@]12CC[C@@H]3c4ccc(O)c(N)c4CC[C@H]3[C@@H]1CC[C@@H]2O`: the T/C is 93 % of control (dose: 12.5 mg/kg/injection, schedule: Q01DX005 (ip), vehicle: saline with Tween-80); 88 % of control (dose: 25.0 mg/kg/injection, schedule: Q01DX005 (ip), vehicle: saline with Tween-80); 94 % of control under setting [5]; 90 % of control under setting [6]; 90 % of control under setting [7].
As to `Cc1cc2c(c3c1c(=O)c1ccccc1n3C)C=CC(C)(C)O2`, the T/C under setting [5] was 114 % of control; the T/C under setting [6] was 108 % of control; the T/C under setting [7] is 120 % of control; the T/C (dose: 300.0 mg/kg/injection, schedule: Q01DX005 (ip), vehicle: saline with Tween-80) was 120 % of control.
Consider `CSc1nc(Cl)c2ncn(C3C=CC(OC(C)=O)CO3)c2n1` (stereo unspecified), for which the T/C is, setting by setting: under setting [8], 103 % of control; under setting [9], 99 % of control; under setting [10], 109 % of control.
Take `c1cc(-c2cc3cc(C4=NCCN4)ccc3s2)ccc1C1=NCCN1`: the T/C is 115 % of control (dose: 25.0 mg/kg/injection, schedule: Q04DX003 (ip), vehicle: saline); 111 % of control (dose: 50.0 mg/kg/injection, schedule: Q04DX003 (ip), vehicle: saline); 98 % of control under setting [11].
For `CC(=O)c1c(O)c(C)c(O)c2c1OC1=CC(=O)c3c(C)noc3C12C` (stereo unspecified), the T/C (dose: 12.5 mg/kg/injection, schedule: Q01DX009 (ip), vehicle: gum acacia) is 102 % of control; the T/C (dose: 25.0 mg/kg/injection, schedule: Q01DX009 (ip), vehicle: gum acacia) is 118 % of control; the T/C (dose: 50.0 mg/kg/injection, schedule: Q01DX009 (ip), vehicle: gum acacia) is 101 % of control and 112 % of control and 113 % of control; the T/C (dose: 100.0 mg/kg/injection, schedule: Q01DX009 (ip), vehicle: gum acacia) is 114 % of control and 118 % of control and 120 % of control; the T/C (dose: 200.0 mg/kg/injection, schedule: Q01DX009 (ip), vehicle: gum acacia) was 104 % of control and 105 % of control.
In the case of `C#CC(C)(C)Nc1c2ccccc2nc2ccccc12`, the T/C under setting [5] was 96 % of control, the T/C under setting [6] is 103 % of control and the T/C under setting [7] was 102 % of control.
Turning to `CSC(=O)NCCCN(C)C`, the T/C under setting [12] is 106 % of control; the T/C under setting [13] was 107 % of control; the T/C (dose: 200.0 mg/kg/injection, schedule: Q01DX005 (ip), vehicle: saline) was 104 % of control.
For `CCCNC12CN3CN(CN(C3)C1)C2`, the T/C under setting [11] is 99 % of control; the T/C (dose: 200.0 mg/kg/injection, schedule: Q04DX003 (ip), vehicle: saline) is 100 % of control; the T/C (dose: 400.0 mg/kg/injection, schedule: Q04DX003 (ip), vehicle: saline) is 95 % of control.
Take `COC(=O)c1c(-c2ccccc2)c(-c2ccccc2)[nH]c(=O)c1C#N`: the T/C is 108 % of control (dose: 60.0 mg/kg/injection, schedule: Q01DX005 (ip), vehicle: saline with Tween-80); 100 % of control (dose: 120.0 mg/kg/injection, schedule: Q01DX005 (ip), vehicle: saline with Tween-80); 91 % of control (dose: 240.0 mg/kg/injection, schedule: Q01DX005 (ip), vehicle: saline with Tween-80).
Regarding `CCOC(=O)C1C/C(=N\O)c2ccc(OC)c(OC)c2C1` (stereo unspecified), the T/C by setting is: (dose: 25.0 mg/kg/injection, schedule: Q01DX009 (ip), vehicle: other) 101 % of control; (dose: 50.0 mg/kg/injection, schedule: Q01DX009 (ip), vehicle: other) 91 % of control; (dose: 100.0 mg/kg/injection, schedule: Q01DX009 (ip), vehicle: other) 93 % of control; (dose: 200.0 mg/kg/injection, schedule: Q01DX009 (ip), vehicle: other) 97 % of control; (dose: 400.0 mg/kg/injection, schedule: Q01DX009 (ip), vehicle: other) 100 % of control.
Take `NCCCNC(=O)c1ccccc1N`: the T/C under setting [8] is 100 % of control, the T/C under setting [9] is 100 % of control and the T/C under setting [10] was 100 % of control.
On to `O=C(Nc1cccc(NC(=O)c2nn[nH]n2)n1)c1nn[nH]n1`, for which the T/C under setting [8] is 105 % of control, the T/C under setting [9] was 105 % of control and the T/C under setting [10] is 99 % of control.
For the compound `CN1CC[S][Sn]([CH2][Sn]2([c]3ccccc3)[S]CCN(C)CC[S]2)([c]2ccccc2)[S]CC1`, the T/C runs as follows: under setting [8], 99 % of control; under setting [9], 101 % of control; under setting [10], 100 % of control.
The like results for `Cc1nc2c(Cl)cccc2c2ccccc12` were, in that order, 88 % of control, 92 % of control and 88 % of control.
Regarding `CC1(C)c2ccccc2-c2nc3ccccc3nc2C1O` (stereo unspecified), the T/C (dose: 100.0 mg/kg/injection, schedule: Q04DX003 (ip), vehicle: Klucel (hydroxypropylcellulose) (HPC)) is 110 % of control; the T/C (dose: 200.0 mg/kg/injection, schedule: Q04DX003 (ip), vehicle: Klucel (hydroxypropylcellulose) (HPC)) is 99 % of control; the T/C (dose: 400.0 mg/kg/injection, schedule: Q04DX003 (ip), vehicle: Klucel (hydroxypropylcellulose) (HPC)) was 112 % of control.
As for `NS(=O)(=O)c1cccnc1Nc1cccc(Cl)c1Cl`, the T/C runs as follows: (dose: 50.0 mg/kg/injection, schedule: Q01DX009 (ip), vehicle: saline) 100 % of control; under setting [1], 100 % of control; under setting [2], 96 % of control.
For `O=C(NCCNC(=O)C12CC3CC(CC(C3)C1)C2)C12CC3CC(CC(C3)C1)C2`, the T/C reads like this: (dose: 6.0 mg/kg/injection, schedule: Q01DX005 (ip), vehicle: Klucel (hydroxypropylcellulose) (HPC)) 88 % of control; (dose: 12.0 mg/kg/injection, schedule: Q01DX005 (ip), vehicle: Klucel (hydroxypropylcellulose) (HPC)) 88 % of control; under setting [14], 94 % of control; under setting [15], 95 % of control; (dose: 400.0 mg/kg/injection, schedule: Q01DX001 (ip), vehicle: saline with Tween-80) 86 % of control.
For `Cc1cnc(F)nc1F`, the T/C under setting [12] is 94 % of control and the T/C under setting [13] is 97 % of control.
Take `Nc1ccc(/C=C\c2nccc3ccccc23)cc1`: the T/C (dose: 3.13 mg/kg/injection, schedule: Q01DX009 (ip), vehicle: saline with Tween-80) is 102 % of control.
On to `O=C(OC1OC(COCc2ccccc2)C(OCc2ccccc2)C(OCc2ccccc2)C1OCc1ccccc1)c1ccc([N+](=O)[O-])cc1` (stereo unspecified), for which the T/C is, setting by setting: under setting [14], 92 % of control; under setting [15], 90 % of control.
